Assay results as given in patent US20230372327A1, “PHARMACEUTICAL COMPOSITION BASED ON […]/OR ITS SALTS FOR NASAL ADMINISTRATION” (Pharmbiotest Poland Sp. z o. o., priority 2020, published 2023).
Structures can show the parent of a compound that is named as a salt. Where two headings read alike, the source gives them in different places.

Columns and labels:
[1] = printed: following nasal use (administration); prior-art compositions, strong first-pass effect; cited from earlier work
[2] = 12 volunteers
Description: The total number of healthy adult male subjects enrolled was twelve. Throughout the study, the conditions of their hospital stay, a dietary pattern, a water consumption regimen, a physical activity regimen for the volunteers were standardized. The clinical step of study consisted of a screening, two study periods, a washout period, and the final examination. The total duration of study, starting from the screening through the completion of study, was approximately three weeks with a seven-day wash-out period between medication administrations. Each study period was preceded by inpatient hospitalization in the evening of the previous day. The medications were dosed on Day 1 of each study period starting from 08:00 a.m. The subjects stayed in the centre for 24 hours after the administration of the medication under study in each study period. In each study period the following was done: the intake of the medications under study whose prescription was determined by a simple randomization method; blood sampling for the determination of active pharmaceutical ingredient concentration; the measurement of vital data such as blood pressure (BP), heart rate; and questionnaire survey of volunteers. […]

clinical = conditions: male, human, plasma, other: intranasal (nasal spray), 10 mg
Description: The total number of healthy adult male subjects enrolled was twelve. Throughout the study, the conditions of their hospital stay, a dietary pattern, a water consumption regimen, a physical activity regimen for the volunteers were standardized. The clinical step of study consisted of a screening, two study periods, a washout period, and the final examination. The total duration of study, starting from the screening through the completion of study, was approximately three weeks with a seven-day wash-out period between medication administrations. Each study period was preceded by inpatient hospitalization in the evening of the previous day. […] In each study period the following was done: the intake of the medications under study whose prescription was determined by a simple randomization method; blood sampling for the determination of active pharmaceutical ingredient concentration; the measurement of vital data such as blood pressure (BP), heart rate; and questionnaire survey of volunteers.
Blood was sampled as follows: 0 hours, 15 min., 30 min., 45 min., 1 hour, 1 hour 30 min., 2 hours, 2 hours 30 min., 3 hours, 4 hours, 6 hours, 8 hours, 12 hours, and 24 hours post-dosing. […] The actual sampling time was recorded. […]
AUC(0-∞) is AUC0-t plus the extrapolated AUC from time t to infinity [ng×h/mL]. The extrapolation is calculated from the last measured concentration (Ct): AUC(0-∞)=AUC(0-t)+Ct/Kel. […]

For `Oc1ccc2c3c1O[C@H]1[C@@H](O)CC[C@@]4(O)[C@@H](C2)N(CC2CCC2)CC[C@]314` [nalbuphine, (5α.6α)-17-(cyclobutylmethyl)-4.5epoxy-morphinan-3.6.14-triol hydrochloride], the bioavailability of nalbuphine [1] is listed as 16.4 to 17.7%, the adverse reactions recorded ([2]; after intramuscular administration of 10 mg of nalbuphine) is listed as 24 cases and the adverse reactions recorded ([2]; after intravenous administration of 10 mg of nalbuphine) is listed as 25 cases. For the same compound, the bioavailability (clinical) was 50%.
